From paper PMC12040169 (PLOS Biology, 2025)

Test: in vitro
Details: human, hela cells, % viability

Structure (SMILES)	viability at 28.5 h, 10 µM [%]
N#CCCCN1CCC(Oc2nccnc2OC2CCCCC2)CC1 [CBK082871T]	101
CSCCN1CCC(Oc2nccnc2OC2CCCCC2)CC1 [CBK082873T]	97
Clc1ccc(CN2CCN(c3nccnc3OCCN3CCOCC3)CC2)cc1Cl [CBK082884T]	96.7
Clc1ccc(CN2CCN(c3nccnc3OCCN3CCOCC3)CC2)cc1 [CBK082887T]	97.4
FC(F)(F)c1ccc(CN2CCN(c3nccnc3OCCN3CCOCC3)CC2)cc1 [CBK082890T]	90.8
c1ccc(-c2ccccc2CN2CCN(c3nccnc3OCCN3CCOCC3)CC2)cc1 [CBK082893T]	90.7
CCOC(=O)CN1CCN(c2nccnc2OCCN2CCOCC2)CC1 [CBK082897]	93.9
c1cnc(N2CCN(CCN3CCOCC3)CC2)c(OCCN2CCOCC2)n1 [CBK082899]	105
c1ccc2cc(CCN3CCN(c4nccnc4OCCN4CCOCC4)CC3)ccc2c1 [CBK082911T]	87.6
COc1ccc(CN2CCC(Oc3nccnc3OCCN3CCOCC3)CC2)cc1 [CBK082922T]	90.8
c1ccc(-c2ccccc2CN2CCC(Oc3nccnc3OCCN3CCOCC3)CC2)cc1 [CBK082924T]	102
Fc1ccc(CCN2CCC(Oc3nccnc3OCCN3CCOCC3)CC2)cc1 [CBK082937T]	88.3
c1cnc(OC2CCN(CC3CCCCC3)CC2)c(OCCN2CCOCC2)n1 [CBK082941T]	87.3
Cc1cc(COc2nccnc2OC2CCN(Cc3ccccc3F)CC2)no1 [CBK082948T]	109
COc1ccc(CN2CCC(Oc3nccnc3OCc3cc(C)on3)CC2)cc1 [CBK082953T]	93.7
CCN(CC)C(=O)CN1CCC(Oc2nccnc2OCc2cc(C)on2)CC1 [CBK082959T]	102
CCOC(=O)CN1CCC(Oc2nccnc2OCc2cc(C)on2)CC1 [CBK082960T]	105
Cc1cc(COc2nccnc2OC2CCN(CCN3CCOCC3)CC2)no1 [CBK082961T]	103
CSCCN1CCC(Oc2nccnc2OCc2cc(C)on2)CC1 [CBK082966T]	89.7
Fc1ccccc1CN1CCC(Oc2nccnc2OCC2COc3ccccc3O2)CC1 (stereo not shown) [CBK082979T]	101
NC(=O)CN1CCC(Oc2nccnc2OCC2COc3ccccc3O2)CC1 (stereo not shown) [CBK082987T]	92.1
CCOC(=O)CN1CCC(Oc2nccnc2OCC2COc3ccccc3O2)CC1 (stereo not shown) [CBK082989T]	96.6

Structure (SMILES)	viability at 28.5 h, 10 µM [%]
N#CCCCN1CCC(Oc2nccnc2OCC2COc3ccccc3O2)CC1 (stereo not shown) [CBK082994T]	86.8
CSCCN1CCC(Oc2nccnc2OCC2COc3ccccc3O2)CC1 (stereo not shown) [CBK082996T]	92.7
c1ccc2c(c1)OCC(COc1nccnc1OC1CCN(CC3CC3)CC1)O2 (stereo not shown) [CBK083001T]	96.5
Fc1ccc(Oc2nccnc2N2CCN(Cc3ccc(Cl)c(Cl)c3)CC2)cc1 [CBK083007T]	92.3
Fc1ccc(Oc2nccnc2N2CCN(Cc3ccccc3F)CC2)cc1 [CBK083009T]	91.8
Fc1ccc(Oc2nccnc2N2CCN(Cc3ccc(Cl)cc3)CC2)cc1 [CBK083010T]	80.4
O=[N+]([O-])c1ccc(CN2CCN(c3nccnc3Oc3ccc(F)cc3)CC2)cc1 [CBK083015T]	92.2
NC(=O)CN1CCN(c2nccnc2Oc2ccc(F)cc2)CC1 [CBK083018T]	98.3
CCN(CC)C(=O)CN1CCN(c2nccnc2Oc2ccc(F)cc2)CC1 [CBK083020T]	87.9
O=c1[nH]c2ccccc2n1CCCN1CCN(c2nccnc2Oc2ccc(F)cc2)CC1 [CBK083027T]	88.2
CSCCN1CCN(c2nccnc2Oc2ccc(F)cc2)CC1 [CBK083028T]	93.2
Fc1ccc(Oc2nccnc2N2CCN(CC3CC3)CC2)cc1 [CBK083033T]	91.8
COc1ccc(Oc2nccnc2N2CCN(Cc3ccc(Cl)cc3)CC2)cc1OC [CBK083041T]	87.3
COc1ccc(Oc2nccnc2N2CCN(Cc3ccc(C(F)(F)F)cc3)CC2)cc1OC [CBK083044T]	102
COc1ccc(Oc2nccnc2N2CCN(Cc3ccc([N+](=O)[O-])cc3)CC2)cc1OC [CBK083046T]	86.4
COc1ccc(Oc2nccnc2N2CCN(Cc3ccc4c(c3)OCO4)CC2)cc1OC [CBK083048T]	106
COc1ccc(Oc2nccnc2N2CCN(CC3CCCCC3)CC2)cc1OC [CBK083064T]	98.6
COc1ccc(Oc2nccnc2N2CCN(CCc3ccccn3)CC2)cc1OC [CBK083067T]	93.2
Clc1ccc(COc2nccnc2N2CCN(Cc3ccc4c(c3)OCO4)CC2)cc1Cl [CBK083078T]	109
NC(=O)CN1CCN(c2nccnc2OCc2ccc(Cl)c(Cl)c2)CC1 [CBK083079T]	111
N#CCCCN1CCN(c2nccnc2OCc2ccc(Cl)c(Cl)c2)CC1 [CBK083086T]	94
O=[N+]([O-])c1ccc(CN2CCC(Oc3nccnc3OCc3ccc(Cl)c(Cl)c3)CC2)cc1 [CBK083107T]	104

Structure (SMILES)	viability at 28.5 h, 10 µM [%]
NC(=O)CN1CCC(Oc2nccnc2OCc2ccc(Cl)c(Cl)c2)CC1 [CBK083110]	104
Clc1ccc(COc2nccnc2OC2CCN(CC3CC3)CC2)cc1Cl [CBK083123T]	92.4
Clc1ccc(CN2CCN(c3nccnc3OCc3cccnc3)CC2)cc1Cl [CBK083128T]	105
Clc1ccc(CN2CCN(c3nccnc3OCc3cccnc3)CC2)cc1 [CBK083130T]	99.6
FC(F)(F)c1ccc(CN2CCN(c3nccnc3OCc3cccnc3)CC2)cc1 [CBK083133T]	101
CCN(CC)C(=O)CN1CCN(c2nccnc2OCc2cccnc2)CC1 [CBK083140]	100
c1cncc(COc2nccnc2N2CCN(CCN3CCOCC3)CC2)c1 [CBK083141]	104
N#CCCCN1CCN(c2nccnc2OCc2cccnc2)CC1 [CBK083144]	96.3
Fc1ccccc1CN1CCC(Oc2nccnc2OCc2cccnc2)CC1 [CBK083157T]	91.8
c1cncc(COc2nccnc2OC2CCN(Cc3cccnc3)CC2)c1 [CBK083158]	108
CCN(CC)c1ccc(C(=O)CN2CCC(Oc3nccnc3OCc3cccnc3)CC2)cc1 [CBK083167T]	112
N#CCCCN1CCC(Oc2nccnc2OCc2cccnc2)CC1 [CBK083171]	85.9
COc1ccc(CCN2CCC(Oc3nccnc3OCc3cccnc3)CC2)cc1OC [CBK083179T]	99
c1cncc(COc2nccnc2OC2CCN(CCOc3cccnc3)CC2)c1 [CBK083181]	92.1
CCC1CCCCN1C(=O)c1ccccc1C(=O)OC (stereo not shown) [CBK083196]	92.4
Cc1ccccc1C(NC(=O)C1CCN(C(=O)OCc2ccccc2)CC1)c1ccc(=O)[nH]c1 (stereo not shown) [CBK083200]	85.7
FC(F)(F)c1ccc(CN2CCCN(c3ccnc(OCC4COc5ccccc5O4)n3)CC2)cc1 (stereo not shown) [CBK083233T]	93
NC(=O)CN1CCCN(c2ccnc(OCC3COc4ccccc4O3)n2)CC1 (stereo not shown) [CBK083236T]	91.4
COc1ccc(CN2CCCN(c3cc(OCC4COc5ccccc5O4)ncn3)CC2)cc1 (stereo not shown) [CBK083255T]	88
CCN(CC)C(=O)CN1CCCN(c2cc(OCCN3C(=O)CCC3=O)ncn2)CC1 [CBK083266T]	102
FC(F)(F)c1ccc(CN2CCCN(c3cc(OC4CCCCC4)ncn3)CC2)cc1 [CBK083277T]	112
COc1ccc(CN2CCCN(c3cc(OC4CCCCC4)ncn3)CC2)cc1 [CBK083278T]	107

Structure (SMILES)	viability at 28.5 h, 10 µM [%]
Cc1cccc(C)c1NC(=O)CN1CCCN(c2cc(OCCN3C(=O)CCC3=O)ncn2)CC1 [CBK083313T]	97.9
Cc1cc(COc2cc(N3CCCN(Cc4ccc5c(c4)OCO5)CC3)ncn2)no1 [CBK083335T]	95.7
O=C1CCc2c(Cc3c(Cl)cccc3Cl)c(O)nn21 [CBK083470]	91.3
Brc1cncc2c1ccn2CCN1CCOCC1 [CBK083479]	87.1
COc1ccc(C(=O)CCCN2CC3CCC(NC(=O)Nc4ccc(F)c(F)c4)CC3C2)cc1 (stereo not shown) [CBK083514T]	109
COc1ccc(C(=O)CCCN2CCc3c([nH]c4ccc(OC)cc34)C2)cc1 [CBK083515T]	101
CC(C)(C)OC(=O)N1CCC2(CC1)NC(=O)c1cc(-c3cccnc3)ccc1O2 [CBK083517]	94.1
Cc1ccc(C(=O)N2CCC(CO)CC2)cc1C [CBK083532]	93.8
COC(=O)N1CC2(CCCCC2NCCC(F)(F)F)c2ccccc21 (stereo not shown) [CBK083539T]	90
COC(=O)N1CC2(CCCCC2NCC2CCCO2)c2ccccc21 (stereo not shown) [CBK083541T]	95.2
CC1=NN(C(=O)C2CC2)C(=O)C1Cc1ccc(F)cc1 (stereo not shown) [CBK083561]	89.9
Nc1ccc(C(=O)Oc2ccc(Oc3ccccc3)cc2)cc1 [CBK083570]	90.5
COc1ccc(OC(=O)c2ccc3nonc3c2)cc1 [CBK083571]	97.9
CCOc1ccc(OC(=O)c2cccc(C)c2)cc1 [CBK083575]	101
COc1ccc(C(NC(=O)NNC(=O)Cc2ccc(Cl)cc2)c2ccccc2C)cn1 (stereo not shown) [CBK083660]	96.1
Cc1ccc(C(=O)NC2CCCCCC2)cc1C [CBK083665]	86
Cc1ccc(C(=O)N(C)C2CCCCC2)cc1C [CBK083667]	137
CC(C)(C)OC(=O)N1CCC2(CC1)NC(=O)c1cc(-c3cccc4ncccc34)ccc1O2 [CBK083674]	109
Nc1c(-c2cc(F)cc(F)c2)cnc2ncccc12 [CBK083677]	111
CSc1ccc(-c2cnc3ncccc3c2N)cc1 [CBK083680]	101
Nc1c(-c2cccc(C(F)(F)F)c2)cnc2ncccc12 [CBK083710]	105
CC(C)C(=O)Nc1c(-c2ccccc2)cnc2ncccc12 [CBK083713]	94.8
